Assay results as given in patent US20090054392A1, “NAPHTHYLPYRIMIDINE, NAPHTHYLPYRAZINE AND NAPHTHYLPYRIDAZINE ANALOGS AND THEIR USE AS AGONISTS OF THE WNT-BETA-CATENIN CELLULAR MESSAGING SYSTEM” (Wyeth, priority 2007, published 2009).
pEC50: −log10 of the molar value. Read-outs that look alike come from different tables or passages of the source.

Test system: Dkk1-LRP5-TCF-Luciferase
Assay: Functional Dkk1-LRP5-TCF-Luciferase Assay in U2OS Cells
Settings: for fold induction at 2 µM / fold induction at 20 µM / pEC50: Homo sapiens, U2OS; for A = MAX FOLD Induction/DMSO CONTROL: maximum fold induction over DMSO control
[1] = read-out: B = TCF ACTIVITY/DMSO CONTROL Fold induction @ 2.0 uM, 2.0 uM compound
[2] = read-out: C = TCF ACTIVITY/DMSO CONTROL Fold induction @ 20.0 uM, 20.0 uM compound
[3] = read-out: B = TCF ACTIVITY/DMSO CONTROL Fold induction @ 2.0 uM
[4] = read-out: C = TCF ACTIVITY/DMSO CONTROL Fold induction @ 20.0 uM

Compound | fold induction at 2 µM [1] | fold induction at 20 µM [2] | further results
Cc1ccc(S(=O)(=O)NCC2CCN(c3nccc(-c4ccc5ccccc5c4)n3)CC2)cc1 [4-methyl-N-({1-[4-(2-naphthyl)pyrimidin-2-yl]piperidin-4-yl}methyl)benzenesulfonamide] | 1.07 | 0.41 | 
Cc1ccc(S(=O)(=O)NC2CCCN(c3nccc(-c4ccc5ccccc5c4)n3)CC2)cc1 (stereo not shown) [4-methyl-N-{1-[4-(2-naphthyl)pyrimidin-2-yl]azepan-4-yl}benzenesulfonamide] | 1.49 | 2.26 | A = MAX FOLD Induction/DMSO CONTROL: 0.780 fold
Cc1ccc(S(=O)(=O)N[C@@H]2CCN(c3nccc(-c4ccc5ccccc5c4)n3)C2)cc1 [4-methyl-N-{(3R)-1-[4-(2-naphthyl)pyrimidin-2-yl]pyrrolidin-3-yl}benzenesulfonamide] | 1.44 | 0.09 | 
Cc1ccc(S(=O)(=O)N[C@H]2CCN(c3nccc(-c4ccc5ccccc5c4)n3)C2)cc1 [4-methyl-N-{(3S)-1-[4-(2-naphthyl)pyrimidin-2-yl]pyrrolidin-3-yl}benzenesulfonamide] | 1.24 |  | 
c1ccc2cc(-c3ccnc(N4CC[C@@H](N5CCOCC5)C4)n3)ccc2c1 [4-{(3R)-1-[4-(2-naphthyl)pyrimidin-2-yl]pyrrolidin-3-yl}morpholine] | 1.2 | 2.45 | A = MAX FOLD Induction/DMSO CONTROL: 1.290 fold
O=C1CN([C@@H]2CCN(c3nccc(-c4ccc5ccccc5c4)n3)C2)CCN1 [4-{(3R)-1-[4-(2-naphthyl)pyrimidin-2-yl]pyrrolidin-3-yl}piperazin-2-one] | 1.25 | 2.33 | pEC50: 5.24; A = MAX FOLD Induction/DMSO CONTROL: 2.874 fold
c1ccc2cc(-c3ccnc(N4CC[C@H](N5CCOCC5)C4)n3)ccc2c1 [4-{(3S)-1-[4-(2-naphthyl)pyrimidin-2-yl]pyrrolidin-3-yl}morpholine] | 1.17 | 3.06 | pEC50: 5.12; A = MAX FOLD Induction/DMSO CONTROL: 2.405 fold
O=C1CN([C@H]2CCN(c3nccc(-c4ccc5ccccc5c4)n3)C2)CCN1 [4-{(3S)-1-[4-(2-naphthyl)pyrimidin-2-yl]pyrrolidin-3-yl}piperazin-2-one] | 1.28 | 3.16 | pEC50: 5.16; A = MAX FOLD Induction/DMSO CONTROL: 3.585 fold
NC(=O)N1CCC(Nc2nccc(-c3ccc4ccccc4c3)n2)CC1 [4-{[4-(2-naphthyl)pyrimidin-2-yl]amino}piperidine-1-carboxamide] | 1.31 | 3.17 | pEC50: 5.28; A = MAX FOLD Induction/DMSO CONTROL: 3.552 fold
O=CN1CCCN(Cc2nccc(-c3ccc4ccccc4c3)n2)CC1 [4-{[4-(2-naphthyl)pyrimidin-2-yl]methyl}-1,4-diazepane-1-carbaldehyde] | 1.15 | 1.13 | 
CN(c1nccc(-c2ccc3ccccc3c2)n1)C1CCN(C=O)CC1 [4-{methyl[4-(2-naphthyl)pyrimidin-2-yl]amino}piperidine-1-carbaldehyde] | 1.73 | 1.29 | 
CN(c1nccc(-c2ccc3ccccc3c2)n1)C1CCN(C(N)=O)CC1 [4-{methyl[4-(2-naphthyl)pyrimidin-2-yl]amino}piperidine-1-carboxamide] | 1.65 | 0.63 | 
CN(c1nccc(-c2ccc3ccccc3c2)n1)C1CCN(C(=N)N)CC1 [4-{methyl[4-(2-naphthyl)pyrimidin-2-yl]amino}piperidine-1-carboximidamide] | 1.74 |  | 
c1ccc2cc(-c3ccnc(N4CC5CCNC5C4)n3)ccc2c1 (stereo not shown) [5-(4-naphthalen-2-ylpyrimidin-2-yl)octahydropyrrolo[3,4-b]pyrrole] | 1.5 |  | 
CN(C)c1cccc2c(S(=O)(=O)N[C@H]3CC[C@H](Nc4nccc(-c5ccc6ccccc6c5)n4)CC3)cccc12 [5-(dimethylamino)-N-(trans-4-{[4-(2-naphthyl)pyrimidin-2-yl]amino}cyclohexyl)naphthalene-1-sulfonamide] | 1.43 | 1.34 | 
c1ccc2cc(-c3ccnc(N4CC[C@@H](N5CC6CCNC6C5)C4)n3)ccc2c1 (stereo partly drawn) [5-{(3R)-1-[4-(2-naphthyl)pyrimidin-2-yl]pyrrolidin-3-yl}octahydropyrrolo[3,4-b]pyrrole] | 2.2 |  | 
c1ccc2cc(-c3ccnc(N4CC[C@H](N5CC6CCNC6C5)C4)n3)ccc2c1 (stereo partly drawn) [5-{(3S)-1-[4-(2-naphthyl)pyrimidin-2-yl]pyrrolidin-3-yl}octahydropyrrolo[3,4-b]pyrrole] | 2.2 |  | 
NCC1CCN(c2nccc(-c3ccc4cc(O)ccc4c3)n2)CC1 [6-{2-[4-(aminomethyl)piperidin-1-yl]pyrimidin-4-yl}-2-naphthol] | 1.88 | 0.015 | 
c1ccc2cc(-c3ccnc(N4CCC5(CC4)OCCO5)n3)ccc2c1 [8-[4-(2-naphthyl)pyrimidin-2-yl]-1,4-dioxa-8-azaspiro[4.5]decane] |  |  | fold induction at 2 µM [3]: 1.5; fold induction at 20 µM [4]: 1.74
OCC1CCCN([C@@H]2CCN(c3nccc(-c4ccc5ccccc5c4)n3)C2)C1 (stereo partly drawn) [(1-{(3R)-1-[4-(2-naphthyl)pyrimidin-2-yl]pyrrolidin-3-yl}piperidin-3-yl)methanol] | 1.49 |  | 
OCC1CCN([C@@H]2CCN(c3nccc(-c4ccc5ccccc5c4)n3)C2)CC1 [(1-{(3R)-1-[4-(2-naphthyl)pyrimidin-2-yl]pyrrolidin-3-yl}piperidin-4-yl)methanol] | 1.69 | 0.01 | 
OCC1CCCN([C@H]2CCN(c3nccc(-c4ccc5ccccc5c4)n3)C2)C1 (stereo partly drawn) [(1-{(3S)-1-[4-(2-naphthyl)pyrimidin-2-yl]pyrrolidin-3-yl}piperidin-3-yl)methanol] | 1.88 | 0.01 | 
OCC1CCN([C@H]2CCN(c3nccc(-c4ccc5ccccc5c4)n3)C2)CC1 [(1-{(3S)-1-[4-(2-naphthyl)pyrimidin-2-yl]pyrrolidin-3-yl}piperidin-4-yl)methanol] | 1.72 | 0.94 | 
CC(C)(O)[C@H](N)C1CCN(c2nccc(-c3ccc4ccccc4c3)n2)CC1 [(1R)-1-amino-2-methyl-1-{1-[4-(2-naphthyl)pyrimidin-2-yl]piperidin-4-yl}propan-2-ol] | 1.78 |  | 
C[C@@H](N)C1CCN(c2nccc(-c3ccc4ccccc4c3)n2)CC1 [(1R)-1-{1-[4-(2-naphthyl)pyrimidin-2-yl]piperidin-4-yl}ethanamine] |  |  | pEC50: 6.06; A = MAX FOLD Induction/DMSO CONTROL: 2.280 fold
C[C@H](N)C1CCN(c2nccc(-c3ccc4ccccc4c3)n2)CC1 [(1S)-1-{1-[4-(2-naphthyl)pyrimidin-2-yl]piperidin-4-yl}ethanamine] |  |  | pEC50: 6.06; A = MAX FOLD Induction/DMSO CONTROL: 1.940 fold
CN1C[C@@H]2C[C@H]1CN2[C@@H]1CCN(c2nccc(-c3ccc4ccccc4c3)n2)C1 [(1S,4S)-2-methyl-5-{(3R)-1-[4-(2-naphthyl)pyrimidin-2-yl]pyrrolidin-3-yl}-2,5-diazabicyclo[2.2.1]heptane] | 1.5 |  | 
NCCN1CCN(c2nccc(-c3ccc4ccccc4c3)n2)CC1 [(2-{4-[4-(2-naphthyl)pyrimidin-2-yl]piperazin-1-yl}ethyl)amine] |  |  | fold induction at 2 µM [3]: 1; fold induction at 20 µM [4]: 1.79
